Measured values: article PMC5502055, “Phase II study of lanreotide autogel in Japanese patients with unresectable or metastatic well-differentiated neuroendocrine tumors” (Investigational New Drugs, 2017)

How the values were obtained:
[1] = system: Japanese patients with grade (G) 1/G2 NET; experiment: Post hoc analysis of tumor growth rate (TGR); format: in vivo, human; parameters: key to TGR (0-Last): % change in tumor volume per month; details: for TGR (0-Last): mean ± SD
Procedure: The descriptive statistics of tumor growth rate (TGR) were calculated in a post hoc analysis of the FAS. The TGR estimates the change of the tumor volume during 1 month. This value incorporates the intervals between imaging tests, thus allowing a quantitative and dynamic evaluation of the tumor response. Scatter plots were prepared, and a subgroup analysis was conducted. To calculate TGR, results evaluated by the investigator were used before baseline, and results determined via central evaluation were used after baseline. There were not enough events for multivariate analysis, therefore univariate analysis based on the Cox proportional hazard model was implemented to assess prognostic factors.
The TGR per unit time was calculated in the post-hoc analysis. From past to 0 (baseline), the results of the investigator’s evaluation were used for tumor lesions, after baseline, the results of a central evaluation were used for the tumor lesions. The TGR (mean ± SD) before the first injection was 25.3 ± 35.7%, and the TGR from baseline to the last value was 5.4 ± 10.7% (Fig. 4).

[2] = system: Japanese patients with grade (G) 1/G2 NET; experiment: Safety: adverse events (NCI-CTCAE ver. 4.0); format: in vivo, human; details: for Adverse events (any): N=32
Procedure: For the safety evaluation, adverse events (AEs) were recorded after the first injection until the point of data cutoff (December 2015) in the extension study. AE severity was assessed according to the National Cancer Institute Common Terminology Criteria for Adverse Events (NCI-CTCAE) ver. 4.0. Gallbladder echography and blood evaluations, including serum anti-lanreotide antibody tests were performed every 12 weeks during the 48 -week period after the first injection, and every 24 weeks thereafter.
Full analysis set (FAS) and CLARINET-like FAS which was satisfied eligibility criteria of the CLARINET study were used for efficacy analysis. Safety analysis set which included patients who had received the study drug at least once was used for safety analysis. Per protocol set (PPS) was used for pharmacokinetic analysis.
Safety was evaluated using results which obtained by the data in the phase II and extension studies up to the time of data cutoff. The maximum exposure period from baseline to the time of data cutoff was 100.0 weeks (median, 87.3 weeks), and the mean exposure period (SD) was 83.1 weeks (15.2 weeks).
Adverse events were evaluated using the National Cancer Institute Common Terminology Criteria for Adverse Events (NCI-CTCAE), ver. 4.0.

## CC(C)[C@@H]1NC(=O)[C@H](CCCCN)NC(=O)[C@@H](Cc2c[nH]c3ccccc23)NC(=O)[C@H](Cc2ccc(O)cc2)NC(=O)[C@@H](NC(=O)[C@H](N)Cc2ccc3ccccc3c2)CSSC[C@@H](C(=O)N[C@H](C(N)=O)[C@@H](C)O)NC1=O [lanreotide]
[1]; FAS n=28, post hoc, TGR before the first injection 25.3 ± 35.7%
  TGR from baseline to the last value (mean ± SD): 5.4 ± 10.7%
[1]; FAS subgroup Age (years) >65, N=12
  TGR (0-Last): 5.44 ± 10.34
[1]; FAS subgroup Age (years) ≤65, N=16
  TGR (0-Last): 5.41 ± 11.34
[1]; FAS subgroup Baseline TGR (%/month) <10, N=13
  TGR (0-Last): 3.41 ± 9.43
[1]; FAS subgroup Baseline TGR (%/month) ≥10, N=15
  TGR (0-Last): 7.17 ± 11.76
[1]; FAS subgroup Grade of tumor Grade 1, N=9
  TGR (0-Last): 1.65 ± 5.95
[1]; FAS subgroup Grade of tumor Grade 2, N=19
  TGR (0-Last): 7.21 ± 12.09
[1]; FAS subgroup Hepatic tumor load (%) >10 and ≤25, N=6
  TGR (0-Last): 8.10 ± 15.47
[1]; FAS subgroup Hepatic tumor load (%) >25 and ≤50, N=3
  TGR (0-Last): 9.49 ± 9.98
[1]; FAS subgroup Hepatic tumor load (%) ≥0 and ≤10, N=18
  TGR (0-Last): 4.09 ± 9.60
[1]; FAS subgroup Ki67 index (%) >2 and ≤5, N=8
  TGR (0-Last): 5.55 ± 8.50
[1]; FAS subgroup Ki67 index (%) >5 and <10, N=9
  TGR (0-Last): 4.63 ± 11.81
[1]; FAS subgroup Ki67 index (%) ≤ 2, N=8
  TGR (0-Last): 1.82 ± 6.34
[1]; FAS subgroup Sex Female, N=9
  TGR (0-Last): 2.71 ± 10.00
[1]; FAS subgroup Sex Male, N=19
  TGR (0-Last): 6.71 ± 11.07
[1]; FAS subgroup primary tumor site Hindgut, N=8
  TGR (0-Last): 16.35 ± 11.02
[1]; FAS subgroup primary tumor site Other/ Unknown, N=5
  TGR (0-Last): 4.23 ± 6.12
[1]; FAS subgroup primary tumor site Pancreas, N=12
  TGR (0-Last): 0.43 ± 7.83
[1]; FAS subgroup prior treatment for NET Absent, N=6
  TGR (0-Last): 0.69 ± 5.09
[1]; FAS subgroup prior treatment for NET Present, N=22
  TGR (0-Last): 6.72 ± 11.55
[1]; FAS subgroup progressive disease at baseline Absent, N=17
  TGR (0-Last): 1.99 ± 6.50
[1]; FAS subgroup progressive disease at baseline Present, N=11
  TGR (0-Last): 10.74 ± 13.84
[1]; population with PD at baseline, 10 of 11 patients
  patients with decrease in TGR at the last value: 90.9%
[2]; 6 patients of 32
  Serious AEs: 18.8%
[2]; Grade 3
  Adverse events (any): 11 (34.4) Number of patients (%)
[2]; Grade 3 only, 6 patients of 32
  Grade 3 or higher ADRs: 18.8%
[2]; Grade 4
  Adverse events (any): 2 (6.3) Number of patients (%)
[2]; Grade 5
  Adverse events (any): 0 Number of patients (%)
[2]; safety analysis set n=32
  ADR faeces pale: 18.8%
  ADR flatulence: 12.5%
  ADR injection site induration: 28.1%
  Grade 4/5 ADRs and ADRs necessitating discontinuation of the study drug: did not occur
  serious ADR pyrexia: 3.1%
[2]; safety analysis set n=32, 27 patients
  patients with AEs related to study drug (ADRs): 84.4%
[2]; safety analysis set n=32, 31 patients
  patients with AEs: 96.9%
